ChEMBL document CHEMBL4665643 (Bioorg Med Chem Lett, 2019)

How the values were obtained:
[1] = target: Serine/threonine-protein kinase pim-1 (Homo sapiens) (UniProt P11309); test: Inhibition of recombinant human His-tagged full length PIM1 expressed in baculovirus expression system using Ser/Thr 07 as substrate at 0.1 uM incubated for 60 mins by Z'-lyte assay relative to control
Janus Kinase (JAK) = Janus Kinase (JAK) (Homo sapiens, UniProt P52333+P23458+O60674+P29597); conditions: beas-2b
Description: Inhibition of JAK in human BEAS-2B cells assessed as reduction in IL13-induced STAT6 phosphorylation incubated for 1 hr followed by IL13 addition and measured after 15 mins by immunofluorescence assay

[2] = target: Serine/threonine-protein kinase pim-2 (Homo sapiens) (UniProt Q9P1W9); test: Inhibition of recombinant human GST-tagged full length PIM2 expressed in baculovirus expression system using Ser/Thr 07 as substrate at 0.1 uM incubated for 60 mins by Z'-lyte assay relative to control
Sequence of Serine/threonine-protein kinase pim-2 (Homo sapiens) (Q9P1W9 whole entry, looked up): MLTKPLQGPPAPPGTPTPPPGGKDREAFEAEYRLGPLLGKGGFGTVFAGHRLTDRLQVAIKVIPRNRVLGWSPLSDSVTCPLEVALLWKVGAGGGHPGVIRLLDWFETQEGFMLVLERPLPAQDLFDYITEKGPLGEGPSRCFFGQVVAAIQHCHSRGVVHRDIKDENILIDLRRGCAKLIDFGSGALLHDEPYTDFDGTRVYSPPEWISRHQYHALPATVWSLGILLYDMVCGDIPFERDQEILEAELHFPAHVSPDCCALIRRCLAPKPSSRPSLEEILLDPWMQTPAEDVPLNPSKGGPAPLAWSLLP

[3] = target: Mitogen-activated protein kinase 8 (Homo sapiens) (UniProt P45983); test: Inhibition of recombinant human His-tagged full length JNK1alpha1 expressed in baculovirus expression system using Ser/Thr 04 as substrate at 0.1 uM incubated for 60 mins by Z'-lyte assay relative to control
Sequence of Mitogen-activated protein kinase 8 (Homo sapiens) (P45983 whole entry, the tested form may be a part): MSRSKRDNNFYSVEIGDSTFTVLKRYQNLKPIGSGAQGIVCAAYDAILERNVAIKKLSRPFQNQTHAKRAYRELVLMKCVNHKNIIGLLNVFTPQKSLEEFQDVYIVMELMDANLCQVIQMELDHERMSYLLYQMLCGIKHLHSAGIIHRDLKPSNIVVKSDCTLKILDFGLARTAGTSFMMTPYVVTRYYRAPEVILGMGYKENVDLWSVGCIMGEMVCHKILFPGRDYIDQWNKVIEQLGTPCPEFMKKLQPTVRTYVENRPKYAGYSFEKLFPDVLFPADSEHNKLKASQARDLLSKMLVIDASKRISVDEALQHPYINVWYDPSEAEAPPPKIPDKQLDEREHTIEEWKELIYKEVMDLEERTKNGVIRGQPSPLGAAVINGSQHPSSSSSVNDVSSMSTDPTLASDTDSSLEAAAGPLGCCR

[4] = target: Receptor tyrosine-protein kinase erbB-2 (Homo sapiens) (UniProt P04626); test: Inhibition of recombinant human His-tagged ERBB2 (676 to 1255 residues) expressed in baculovirus expression system using Tyr 06 as substrate at 0.1 uM incubated for 60 mins by Z'-Lyte assay relative to control
[5] = target: Cyclin-dependent kinase 1/cyclin B1 (Homo sapiens) (UniProt P06493+P14635); test: Inhibition of recombinant human His-tagged full length CDK1/Cyclin B expressed in baculovirus expression system using Ser/Thr 18 as substrate at 0.1 uM incubated for 60 mins by Z'-Lyte assay relative to control
Sequence of Cyclin-dependent kinase 1/cyclin B1 (Homo sapiens) (P06493 whole entry, looked up): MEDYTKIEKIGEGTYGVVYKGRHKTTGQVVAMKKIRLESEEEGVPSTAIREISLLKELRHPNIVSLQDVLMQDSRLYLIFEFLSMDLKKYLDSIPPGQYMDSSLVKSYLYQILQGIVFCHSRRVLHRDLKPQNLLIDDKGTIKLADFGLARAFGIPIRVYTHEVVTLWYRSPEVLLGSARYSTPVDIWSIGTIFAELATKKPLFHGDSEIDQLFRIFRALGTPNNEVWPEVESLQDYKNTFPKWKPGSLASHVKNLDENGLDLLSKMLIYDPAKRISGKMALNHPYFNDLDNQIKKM
Sequence of Cyclin-dependent kinase 1/cyclin B1 (Homo sapiens) (P14635 whole entry, looked up): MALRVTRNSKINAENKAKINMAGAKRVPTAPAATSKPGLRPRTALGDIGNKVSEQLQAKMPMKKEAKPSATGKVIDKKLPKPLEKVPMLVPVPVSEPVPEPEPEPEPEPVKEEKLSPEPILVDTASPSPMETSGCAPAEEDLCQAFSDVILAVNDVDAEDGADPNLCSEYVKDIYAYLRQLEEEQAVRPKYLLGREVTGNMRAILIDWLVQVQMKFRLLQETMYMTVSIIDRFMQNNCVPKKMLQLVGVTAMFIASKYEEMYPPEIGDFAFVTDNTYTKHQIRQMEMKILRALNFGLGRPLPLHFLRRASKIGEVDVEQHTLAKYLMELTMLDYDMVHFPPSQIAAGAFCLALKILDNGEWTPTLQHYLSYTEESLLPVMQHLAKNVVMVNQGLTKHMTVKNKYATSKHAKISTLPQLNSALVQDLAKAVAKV

[6] = target: Tyrosine-protein kinase JAK2 (Homo sapiens, UniProt O60674)
Description: Inhibition of recombinant human JAK2 (812 to 1132 residues) expressed in insect cells using Y1-B as substrate incubated for 30 mins by microfluidic mobility shift assay

[7] = target: Tyrosine-protein kinase SYK (Homo sapiens) (UniProt P43405); test: Inhibition of recombinant human N-terminalGST-tagged full length SYK expressed in baculovirus expression system using Tyr 02 as substrate at 0.1 uM incubated for 60 mins by Z'-Lyte assay relative to control
[8] = target: Protein kinase C beta type (Homo sapiens) (UniProt P05771); test: Inhibition of recombinant human His-tagged full length PKCbeta1 expressed in insect expression system using Ser/Thr 07 as substrate at 0.1 uM incubated for 60 mins by Z'-lyte assay relative to control
Sequence of Protein kinase C beta type (Homo sapiens) (P05771 2-671 limits assumed): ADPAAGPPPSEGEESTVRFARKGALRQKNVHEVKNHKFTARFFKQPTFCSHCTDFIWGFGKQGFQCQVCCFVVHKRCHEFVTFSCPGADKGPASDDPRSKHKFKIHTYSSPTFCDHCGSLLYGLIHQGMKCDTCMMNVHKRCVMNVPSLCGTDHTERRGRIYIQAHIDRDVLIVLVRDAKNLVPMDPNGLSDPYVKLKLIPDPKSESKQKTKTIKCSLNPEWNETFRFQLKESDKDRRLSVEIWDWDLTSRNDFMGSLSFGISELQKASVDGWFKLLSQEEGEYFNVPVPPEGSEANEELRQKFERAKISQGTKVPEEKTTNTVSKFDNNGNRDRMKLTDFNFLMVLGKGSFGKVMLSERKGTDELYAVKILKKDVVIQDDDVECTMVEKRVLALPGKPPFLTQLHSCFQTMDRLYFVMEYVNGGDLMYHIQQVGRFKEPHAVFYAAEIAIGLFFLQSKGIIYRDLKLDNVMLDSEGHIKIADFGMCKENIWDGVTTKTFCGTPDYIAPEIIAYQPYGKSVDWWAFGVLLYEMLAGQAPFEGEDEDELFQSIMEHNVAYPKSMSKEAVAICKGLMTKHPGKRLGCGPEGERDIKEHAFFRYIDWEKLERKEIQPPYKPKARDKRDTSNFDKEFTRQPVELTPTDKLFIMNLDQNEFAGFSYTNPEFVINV

in vitro = conditions: dog, MDCK
Description: Apparent permeability across apical to basolateral side in MDCK cells at 10 uM incubated upto 180 mins by LC/MS-MS analysis

LRRK2 = LRRK2 (Homo sapiens, UniProt Q5S007); test: Inhibition of recombinant human GST-tagged LRRK2 (970 to 2527 residues) expressed in baculovirus expression system using LRRKtide as substrate at 0.1 uM incubated for 60 mins by Adapta assay relative to control; conditions: probe LRRKtide
Sequence of LRRK2 (Q5S007 whole entry, the tested form may be a part): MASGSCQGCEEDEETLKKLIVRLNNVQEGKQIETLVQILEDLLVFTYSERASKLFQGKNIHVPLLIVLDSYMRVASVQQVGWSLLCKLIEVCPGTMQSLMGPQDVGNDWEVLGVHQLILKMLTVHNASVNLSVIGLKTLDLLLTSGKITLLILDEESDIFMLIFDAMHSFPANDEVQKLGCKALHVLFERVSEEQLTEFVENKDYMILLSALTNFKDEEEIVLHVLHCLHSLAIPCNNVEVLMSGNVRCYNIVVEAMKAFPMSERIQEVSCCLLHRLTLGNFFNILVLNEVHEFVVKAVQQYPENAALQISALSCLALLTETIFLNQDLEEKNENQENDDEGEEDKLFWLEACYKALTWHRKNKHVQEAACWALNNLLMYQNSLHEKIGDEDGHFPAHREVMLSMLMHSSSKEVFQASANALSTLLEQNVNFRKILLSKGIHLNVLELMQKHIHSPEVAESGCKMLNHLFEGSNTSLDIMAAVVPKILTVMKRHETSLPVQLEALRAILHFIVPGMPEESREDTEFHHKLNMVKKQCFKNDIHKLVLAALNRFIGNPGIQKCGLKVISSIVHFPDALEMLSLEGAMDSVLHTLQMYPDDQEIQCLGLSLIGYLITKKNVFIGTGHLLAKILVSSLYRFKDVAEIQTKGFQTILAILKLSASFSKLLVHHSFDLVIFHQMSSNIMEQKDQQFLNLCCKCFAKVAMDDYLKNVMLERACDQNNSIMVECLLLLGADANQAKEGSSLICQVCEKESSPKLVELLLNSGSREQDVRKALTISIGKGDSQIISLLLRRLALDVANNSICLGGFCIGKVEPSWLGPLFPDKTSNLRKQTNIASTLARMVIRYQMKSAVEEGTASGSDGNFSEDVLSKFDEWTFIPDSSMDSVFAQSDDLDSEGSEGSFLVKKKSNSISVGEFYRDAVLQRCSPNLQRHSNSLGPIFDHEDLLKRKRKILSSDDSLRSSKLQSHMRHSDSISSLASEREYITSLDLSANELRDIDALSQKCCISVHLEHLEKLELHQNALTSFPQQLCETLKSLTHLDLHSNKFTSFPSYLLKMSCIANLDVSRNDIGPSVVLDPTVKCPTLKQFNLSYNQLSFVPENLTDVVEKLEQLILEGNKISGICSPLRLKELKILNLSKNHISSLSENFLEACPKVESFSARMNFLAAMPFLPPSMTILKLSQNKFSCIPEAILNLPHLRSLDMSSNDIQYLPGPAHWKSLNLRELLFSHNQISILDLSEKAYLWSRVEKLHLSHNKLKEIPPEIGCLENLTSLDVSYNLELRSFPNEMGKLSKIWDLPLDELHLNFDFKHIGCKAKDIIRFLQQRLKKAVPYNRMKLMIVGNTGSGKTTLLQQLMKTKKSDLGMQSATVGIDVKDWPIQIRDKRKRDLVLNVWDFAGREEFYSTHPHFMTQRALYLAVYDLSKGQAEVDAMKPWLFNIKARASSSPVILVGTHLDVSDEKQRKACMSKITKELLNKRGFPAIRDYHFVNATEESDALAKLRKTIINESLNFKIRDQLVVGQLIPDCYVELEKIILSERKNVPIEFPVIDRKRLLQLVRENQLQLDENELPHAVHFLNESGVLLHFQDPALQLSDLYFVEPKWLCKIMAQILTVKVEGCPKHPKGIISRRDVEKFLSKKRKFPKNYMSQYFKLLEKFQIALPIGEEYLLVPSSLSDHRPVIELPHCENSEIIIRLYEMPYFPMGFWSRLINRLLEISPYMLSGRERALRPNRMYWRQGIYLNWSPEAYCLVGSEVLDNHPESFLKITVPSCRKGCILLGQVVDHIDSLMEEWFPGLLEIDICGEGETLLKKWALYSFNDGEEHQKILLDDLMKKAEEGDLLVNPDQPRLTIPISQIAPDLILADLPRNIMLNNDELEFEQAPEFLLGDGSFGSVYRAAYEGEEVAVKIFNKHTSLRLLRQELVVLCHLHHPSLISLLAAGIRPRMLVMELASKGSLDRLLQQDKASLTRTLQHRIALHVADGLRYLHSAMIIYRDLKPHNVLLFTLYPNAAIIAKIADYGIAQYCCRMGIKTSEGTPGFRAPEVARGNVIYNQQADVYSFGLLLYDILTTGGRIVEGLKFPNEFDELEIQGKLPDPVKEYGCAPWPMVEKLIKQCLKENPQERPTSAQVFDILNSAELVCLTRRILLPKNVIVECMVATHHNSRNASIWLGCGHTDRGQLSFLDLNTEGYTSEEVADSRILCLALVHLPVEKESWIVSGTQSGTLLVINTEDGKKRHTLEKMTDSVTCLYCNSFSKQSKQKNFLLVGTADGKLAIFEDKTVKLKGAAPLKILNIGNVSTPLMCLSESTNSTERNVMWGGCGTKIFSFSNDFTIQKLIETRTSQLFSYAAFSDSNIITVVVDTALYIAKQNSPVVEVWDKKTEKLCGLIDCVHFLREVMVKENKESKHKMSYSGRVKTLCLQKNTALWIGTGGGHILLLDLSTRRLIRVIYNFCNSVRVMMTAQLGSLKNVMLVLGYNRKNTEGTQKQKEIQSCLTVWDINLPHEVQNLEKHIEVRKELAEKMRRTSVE

[9] = target: T1, Mitogen-activated protein kinase 13 (Homo sapiens) (UniProt O15264); test: Inhibition of recombinant human His-tagged full length p38 delta expressed in baculovirus expression system using Ser/Thr 03 as substrate at 0.1 uM incubated for 60 mins by Z'-Lyte assay relative to control
T1 sequence (whole entry): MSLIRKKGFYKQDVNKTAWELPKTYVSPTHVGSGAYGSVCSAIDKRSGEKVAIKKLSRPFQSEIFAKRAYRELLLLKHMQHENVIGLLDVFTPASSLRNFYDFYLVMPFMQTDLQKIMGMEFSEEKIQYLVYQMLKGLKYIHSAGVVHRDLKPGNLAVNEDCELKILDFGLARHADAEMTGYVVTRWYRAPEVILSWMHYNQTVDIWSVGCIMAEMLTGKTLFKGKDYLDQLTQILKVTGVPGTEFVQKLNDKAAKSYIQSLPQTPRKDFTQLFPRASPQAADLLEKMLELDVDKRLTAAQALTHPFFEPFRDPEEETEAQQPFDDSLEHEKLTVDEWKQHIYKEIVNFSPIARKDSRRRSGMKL

[10] = target: Insulin-like growth factor 1 receptor (Homo sapiens) (UniProt P08069); test: Inhibition of recombinant human His-tagged IGF1R (960 to 1397 residues) expressed in baculovirus expression system using Tyr 01 as substrate at 0.1 uM incubated for 60 mins by Z'-Lyte assay relative to control
[11] = target: Angiopoietin-1 receptor (Homo sapiens) (UniProt Q02763); test: Inhibition of recombinant human GST-tagged TIE2 (817 to 1101 residues) expressed in baculovirus expression system using […] as substrate at 0.1 uM incubated for 60 mins by Z'-Lyte assay relative to control
[12] = target: Death-associated protein kinase 1 (Homo sapiens) (UniProt P53355); test: Inhibition of recombinant human N-terminal GST-tagged DAPK1 (1 to 363 residues) expressed in baculovirus expression system using ZIPtide as substrate at 0.1 uM incubated for 60 mins by Adapta assay relative to control
[13] = target: T2, G protein-coupled receptor kinase 3 (Homo sapiens) (UniProt P35626); test: Inhibition of recombinant human GST-tagged full length GRK3 expressed in baculovirus expression system using Ser/Thr 16 as substrate at 0.1 uM incubated for 60 mins by Z'-Lyte assay relative to control
T2 sequence (whole entry): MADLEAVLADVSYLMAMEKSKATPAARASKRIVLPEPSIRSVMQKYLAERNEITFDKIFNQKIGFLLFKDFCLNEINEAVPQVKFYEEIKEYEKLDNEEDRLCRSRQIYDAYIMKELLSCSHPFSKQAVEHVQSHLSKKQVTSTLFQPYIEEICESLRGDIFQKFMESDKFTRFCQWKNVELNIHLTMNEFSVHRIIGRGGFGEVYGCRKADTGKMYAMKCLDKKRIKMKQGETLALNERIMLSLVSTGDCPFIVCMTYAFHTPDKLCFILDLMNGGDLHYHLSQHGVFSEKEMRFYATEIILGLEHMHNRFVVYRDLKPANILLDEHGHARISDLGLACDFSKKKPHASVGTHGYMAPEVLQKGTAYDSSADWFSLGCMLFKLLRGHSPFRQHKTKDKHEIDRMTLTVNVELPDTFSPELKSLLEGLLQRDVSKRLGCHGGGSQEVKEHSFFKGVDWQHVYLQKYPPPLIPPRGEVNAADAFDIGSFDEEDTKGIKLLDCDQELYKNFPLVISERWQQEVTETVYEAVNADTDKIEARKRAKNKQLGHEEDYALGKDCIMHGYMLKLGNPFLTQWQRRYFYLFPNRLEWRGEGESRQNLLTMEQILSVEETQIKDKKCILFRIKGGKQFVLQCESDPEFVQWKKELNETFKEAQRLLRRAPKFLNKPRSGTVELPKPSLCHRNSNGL

[14] = target: Serine/threonine-protein kinase Sgk1 (Homo sapiens) (UniProt O00141); test: Inhibition of recombinant human GST-tagged […] SGK1 (60 to 431 residues) expressed in baculovirus expression system using Ser/Thr 06 as substrate at 0.1 uM incubated for 60 mins by Z'-Lyte assay relative to control

Sequence of Serine/threonine-protein kinase pim-1 (Homo sapiens) (P11309 whole entry, looked up): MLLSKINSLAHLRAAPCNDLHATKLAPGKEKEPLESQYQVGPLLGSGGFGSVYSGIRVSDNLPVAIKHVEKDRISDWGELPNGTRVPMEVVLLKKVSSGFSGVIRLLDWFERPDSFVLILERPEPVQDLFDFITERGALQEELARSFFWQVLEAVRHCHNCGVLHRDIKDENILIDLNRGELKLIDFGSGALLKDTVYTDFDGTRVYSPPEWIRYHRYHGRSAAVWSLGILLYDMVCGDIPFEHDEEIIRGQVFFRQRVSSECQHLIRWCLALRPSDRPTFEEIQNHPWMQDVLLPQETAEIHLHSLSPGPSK

Structure (SMILES) | inhibition [1] [%] | IC50 (Janus Kinase (JAK)) [nM] | inhibition [2] [%] | inhibition [3] [%] | inhibition [4] [%] | inhibition [5] [%] | Ki [6] [nM] | inhibition [7] [%] | inhibition [8] [%] | Papp A→B at 3 h, 10 µM (in vitro) [×10⁻⁶ cm/s] | inhibition at 1 h, 0.1 µM (LRRK2) [%] | inhibition [9] [%] | inhibition [10] [%] | inhibition [11] [%] | Ratio IC50 (Homo sapiens) | inhibition [12] [%] | inhibition [13] [%] | inhibition [14] [%]
Cn1cc(NC(=O)c2cnn3cccnc23)c(-c2cc(Cl)ccc2OC(F)F)n1 | 6 | 4.7 | 2 | 11 | -1 | 4 | 0.088 | 7 | 2 | 14 | 61 | 0 | 8 | 3 | 47 | 11 | 3 | 7
O=C(Nc1c[nH]nc1-c1cc(Cl)ccc1OC(F)F)c1cnn2cccnc12 | 4 | 5.2 | 18 | 11 | 1 | 53 | 0.071 | 8 | 24 | 14 | 87 | 10 | 9 | 12 | 15 | 19 | -1 | –
O=C(Nc1c[nH]nc1-c1cc2ccccc2cc1OC(F)F)c1cnn2cccnc12 | 4 | 6.4 | -1 | -5 | -6 | 27 | – | 6 | 13 | 13 | 31 | 6 | 5 | – | 83 | 22 | 1 | -4
